Measurements reported in patent publication US11672797B2, “Methods of treating keloids” (Hampton University, priority 2019, dated 2023).

Legend:
Type in all cases: cell-based, human
[1] = tested on: Keloid fibroblast (KF) cells (CRL1762); assay: Example 2: phalloidin / DAPI staining of keloid fibroblasts, 10,000 cells per well; conditions: 16 hours
Description: (§1) Keloid fibroblast (KF) cells (CRL1762) and normal skin fibroblasts (NF, CRL2439) were both purchased from the American Type Culture Collection (ATCC, Manassas, Va.). This assay compared the effects of KC7F2 versus the glycolytic inhibitor 2-DG on the cellular consequences of HIF-1 functional blockade.
(§2) For each human skin fibroblast, 10,000 cells were plated per well. Each well was treated and incubated for 16 hours with the following: Control, no chemical treatment; 40 μM KC7F2; 10 mM 2-deoxyglucose (2-DG), a glycolysis inhibitor; and both 40 μM KC7F2 and 10 mM 2-DG. Cells were stained with phalloidin for filamentous actin and cells were labelled DAPI (4′,6-diamidino-2-phenylindolepropridium iodide) to indicate dying cells. Images were taken at a magnification of 4 times (4×) and 10 times (10×).

[2] = tested on: Keloid fibroblast (KF) cells (CRL1762); assay: Example 3: phalloidin / DAPI staining of keloid fibroblasts, 20,000 cells per well; conditions: 16 hours
Description: as §1
as §2, with “20,000 cells,” for “10,000 cells”

[3] = tested on: Keloid fibroblast (KF) cells (CRL1762); assay: Example 1: Hoechst / propidium iodide staining of keloid fibroblasts after 16 h treatment; conditions: for number of KF cells: 40 μM KC7F2, 25 uM IDF-11774, 25 uM PX-478, 10 mM 2-DG, compared to control untreated cells, FIGS. 4A-B

Row | SMILES | proliferation ([1]; 10 mM 2-DG alone) | proliferation ([2]; 10 mM 2-DG alone) | proliferation ([3]; 10 mM 2-DG alone) | number of KF cells [3] | number of KF cells ([1]; 40 μM KC7F2, FIGS. 5A, 6A) | number of KF cells ([2]; 40 μM KC7F2, FIGS. 7A, 8A)
1 | O=CC[C@@H](O)[C@H](O)[C@H](O)CO [2-DG, 2-deoxyglucose] | insufficient to impede proliferation to an appreciable amount | insufficient to impede proliferation to an appreciable amount | insufficient to impede proliferation to an appreciable amount | – | – | –
2 | CN1CCN(C(=O)COc2ccc(C34CC5CC(CC(C5)C3)C4)cc2)CC1 [IDF-11774, 2-(4-((3r,5r,7r)-adamantan-1-yl)phenoxy)-1-(4-methylpiperazin-1-yl)ethan-1-one] | – | – | – | worked less well, but showed the same trend | – | –
3 | O=S(=O)(NCCSSCCNS(=O)(=O)c1cc(Cl)ccc1Cl)c1cc(Cl)ccc1Cl [KC7F2] | – | – | – | reduced the number of KF cells consistently and the best | reduced the number of KF cells consistently and the best | reduced the number of KF cells consistently and the best
